# Experimental data published in patent publication US12161643B2, “Stable formulations of SHR0302” (ARCUTIS BIOTHERAPEUTICS, INC., priority 2021, dated 2024).
# Columns and labels:
# [1] = Solubility of SHR0302 in water at varying pH values in a phosphate buffer; type: physicochemical; details: phosphate buffer system; FIG. 1
# Description: The solubility of SHR0302 was determined in water at varying pH values in a phosphate buffer. FIG. 1 illustrates a plot of SHR0302 (also known as ARQ-250) concentration in μg/mL in water as a function of pH in a phosphate buffer system.
# [2] = Solubility of SHR0302 in water at varying pH values in phosphate and citrate buffer systems; type: physicochemical; details: FIG. 2
# Description: The solubility of SHR0302 was determined in water at varying pH values in various buffer systems. FIG. 2 illustrates a plot of SHR0302 concentration in μg/mL in water as a function of pH in two phosphate buffer systems and a citrate buffer system.
# JAK1 = JAK1 (Homo sapiens, UniProt P23458); details: cited from earlier work
# Sequence of JAK1 (P23458 whole entry): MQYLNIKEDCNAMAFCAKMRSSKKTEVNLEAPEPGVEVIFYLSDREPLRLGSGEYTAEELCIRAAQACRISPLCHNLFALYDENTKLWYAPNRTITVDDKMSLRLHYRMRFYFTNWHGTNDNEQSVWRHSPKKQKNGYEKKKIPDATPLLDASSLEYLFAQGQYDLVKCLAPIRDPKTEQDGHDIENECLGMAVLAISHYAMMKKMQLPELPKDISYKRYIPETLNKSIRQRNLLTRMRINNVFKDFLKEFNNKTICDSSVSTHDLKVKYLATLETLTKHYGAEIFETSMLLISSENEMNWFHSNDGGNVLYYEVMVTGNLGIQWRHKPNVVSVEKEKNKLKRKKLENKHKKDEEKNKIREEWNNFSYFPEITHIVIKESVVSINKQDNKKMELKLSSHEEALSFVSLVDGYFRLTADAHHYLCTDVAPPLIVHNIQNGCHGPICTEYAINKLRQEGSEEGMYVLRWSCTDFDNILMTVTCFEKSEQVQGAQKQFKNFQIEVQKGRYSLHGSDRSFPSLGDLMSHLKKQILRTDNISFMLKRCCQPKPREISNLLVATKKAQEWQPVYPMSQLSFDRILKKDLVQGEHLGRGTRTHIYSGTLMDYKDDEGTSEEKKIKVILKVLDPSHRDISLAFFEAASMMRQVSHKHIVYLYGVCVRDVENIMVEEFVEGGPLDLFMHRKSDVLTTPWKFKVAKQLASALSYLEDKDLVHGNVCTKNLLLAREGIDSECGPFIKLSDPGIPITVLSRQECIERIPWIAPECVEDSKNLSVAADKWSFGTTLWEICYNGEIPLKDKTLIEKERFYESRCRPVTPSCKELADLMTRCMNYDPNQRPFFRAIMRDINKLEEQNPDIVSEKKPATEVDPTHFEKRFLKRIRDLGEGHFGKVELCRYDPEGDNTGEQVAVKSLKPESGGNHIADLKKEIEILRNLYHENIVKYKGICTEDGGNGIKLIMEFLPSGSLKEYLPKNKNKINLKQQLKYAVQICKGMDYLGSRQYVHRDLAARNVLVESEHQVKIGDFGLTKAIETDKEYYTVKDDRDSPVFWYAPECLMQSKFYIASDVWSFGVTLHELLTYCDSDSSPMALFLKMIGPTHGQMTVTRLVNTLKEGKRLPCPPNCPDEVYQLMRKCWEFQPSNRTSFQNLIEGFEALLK
smiles,measurement,setting,value
"COc1nsc(NC(=O)N2C[C@H]3C[C@H](N(C)c4ncnc5[nH]ccc45)C[C@H]3C2)n1 [SHR0302, (3aR,5S,6aS)—N-(3-methoxyl-1,2,4-thiadiazol-5-yl)-5-(methyl(7H-pyrrolo[2,3-d]pyrimidin-4-yl)amino)hexahydrocyclopenta[c]pyrrole-2(1H)-carboxamide]",solubility in water as a function of pH,[1],decreases as pH levels increase
same,solubility in water as a function of pH,[2],decreases as pH levels increase
same,selectivity for JAK1 over JAK2,JAK1; JAK1 over JAK2,high selectively for JAK1 over JAK2
same,inhibition of JAK1,JAK1,potent
